Source: PMC9613470, “Diverse MarR bacterial regulators of auxin catabolism in the plant microbiome” (Nature Microbiology, 2022)

Tests used:
IAA degradation locus = experiment: RNA-seq of V. paradoxus CL14 strains with and without IAA; type: cell-based, Variovorax paradoxus CL14; conditions: Fig 2 f; for CL14wt_IAA (RNA-seq expression value): CL14 wild type with IAA; for d50_IAA (RNA-seq expression value): ΔMarR_50 with IAA; for d73_IAA (RNA-seq expression value): ΔMarR_73 with IAA; for diadDE_IAA (RNA-seq expression value): ΔiadDE with IAA
Protocol: V. paradoxus CL14 was grown in 5 ml cultures of M9 minimal medium supplemented with 15 mM succinate and 0.5% (v/v) ethanol alone or containing IAA. IAA was at a final concentration of 0.1 mg ml^−1 in the medium to which it was added. Cultures were prepared at a starting OD600 of 0.02 and incubated at 28 °C, shaking at 250 r.p.m. Cells from all samples were collected for RNA-seq at 18 h to ensure IAA was still present in the cultures of strains that degraded IAA most rapidly. Cells were pelleted by centrifuging the culture at 4,200 × g for 15 min and removing the supernatant. Cell pellets were frozen at −80 °C before RNA extraction. To extract RNA, cells were lysed in TRIzol reagent (Invitrogen) according to manufacturer instructions for lysis and phase separation. After these steps, RNA was purified from the aqueous phase using the RNeasy mini kit (Qiagen) including the optional on-column DNase digestion with RNase-free DNase set (Qiagen). Total RNA was quantified using the Qubit 2.0 fluorometer (Invitrogen) and RNA-seq libraries were prepared using the Universal Prokaryotic RNA-Seq Prokaryotic AnyDeplete kit (Tecan) according to manufacturer instructions. The resulting libraries were pooled and sequenced on the Illumina HiSeq4000 to generate 50 bp single-end reads.
The V. paradoxus CL14 RNA-seq sequence data were analysed as described previously. Briefly, the raw reads were mapped to the V. paradoxus CL14 genome (fasta file available at https://github.com/isaisg/variovoraxRGI/blob/master/rawdata/2643221508.fna) using bowtie2[53] with the ‘very sensitive’ flag. Hits to each individual coding sequence were counted and annotated using the function featureCounts from the R package Rsubread[54], inputting the V. paradoxus CL14 gff file (available at https://github.com/isaisg/variovoraxRGI/blob/master/rawdata/2643221508.gff) and using the default parameters with the flag allowMultiOverlap = FALSE. Finally, DESeq2[55] was used to estimate Differentially Expressed Genes (DEGs) between treatments, with the corresponding fold-change estimates and False Discovery Rate (FDR) adjusted P values. For visualization purposes, we performed z-score standardization of each gene across samples and we visualized this standardized expression values utilizing a heat map constructed using ggplot2[56].

MarR_73 H32A = MarR_73 H32A (Variovorax paradoxus, UniProt C5CSP2, H32A); experiment: biochemical
Chain of MarR_73 H32A (C5CSP2 1-158, stated change not applied): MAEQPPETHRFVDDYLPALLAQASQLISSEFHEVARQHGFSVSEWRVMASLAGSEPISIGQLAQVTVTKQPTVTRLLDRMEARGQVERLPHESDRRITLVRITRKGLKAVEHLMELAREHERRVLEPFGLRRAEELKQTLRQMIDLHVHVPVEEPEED
Protocol: (§1) The coding sequence for each gene can be found in Supplementary Table 10. MarR expression plasmids were synthesized as codon-optimized genes for E. coli expression by BioBasic in the pLIC-His N-term vector (pMCSG7) and transformed into E. coli BL21 (DE3) Gold cells for expression. […] At an OD600 of 0.8, protein expression was induced by the addition of 0.1 mM IPTG and incubation continued overnight. Cells were collected by centrifugation at 4,500 × g for 20 min at 4 °C in a Sorvall (model RC-3B) swinging bucket centrifuge. Cell pellets were resuspended in buffer A (20 mM potassium phosphate, pH 7.4, 50 mM imidazole, 500 mM NaCl), DNase, lysozyme and a Roche Complete EDTA-free protease inhibitor tablet. Resuspended cells were sonicated and clarified via centrifugation at 17,000 × g for 60 min in a Sorvall (model RC-5B) swinging bucket centrifuge. The lysate was applied to a nickel-nitrilotriacetic acid HP column (GE Healthcare) on an Aktaxpress Fast Performance Liquid Chromatography (FPLC) system (Amersham Bioscience) and washed with buffer A. Protein was eluted with buffer B (20 mM potassium phosphate, pH 7.4, 500 mM imidazole, 500 mM NaCl). Fractions containing the protein of interest were combined and passed over a HiLoadTM 16/60 SuperdexTM 200 gel filtration column. Proteins were eluted in S200 buffer (20 mM HEPES, pH 7.4, 300 mM NaCl). Fractions were combined and concentrated for long-term storage at −80 °C.
(§2) MarR mutant proteins were created by site-directed mutagenesis using primers from Integrated DNA Technologies. […] The mutants were produced and purified using E. coli BL21 (DE3) Gold as described above.
(§3) All ITC measurements were performed at 25 °C using an Auto-ITC200 microcalorimeter (MicroCal/GE Healthcare). The buffer employed was 20 mM HEPES, pH 7.4, 50 mM NaCl and 0.5% dimethly sulfoxide (DMSO) for protein/ligand binding and 20 mM HEPES, pH 7.4 and 300 mM NaCl for DNA/protein binding experiments. For ligand binding experiments, the calorimetry cell (volume […]) was loaded with MarR wild-type, mutant or homologue protein at a concentration of 50 μM. The syringe was loaded with a ligand concentration of 0.5 or 2 mM. […] A typical injection protocol included a single 0.2 μl first injection followed by 20 1.5 μl injections of the syringe sample into the calorimetry cell. The spacing between injections was kept at 180 s and the reference power at 8 μcal s^−1. […] Two independent ITC measurements were performed for each condition.

MarR_73 S28A = MarR_73 S28A (Variovorax paradoxus, UniProt C5CSP2, S28A); experiment: biochemical
Chain of MarR_73 S28A (C5CSP2 1-158, stated change not applied): as above
Protocol: as §1, §2, §3

MarR_73 R46A = MarR_73 R46A (Variovorax paradoxus, UniProt C5CSP2, R46A); experiment: biochemical
Chain of MarR_73 R46A (C5CSP2 1-158, stated change not applied): as above
Protocol: as §1, §2, §3

MarR_73 S28A R46A = MarR_73 S28A R46A (Variovorax paradoxus, UniProt C5CSP2, R46A/S28A); conditions: ITC, 25 °C; mutant S28A R46A
Chain of MarR_73 S28A R46A (C5CSP2 1-158, stated change not applied): as above
Protocol: as §1, with “Fractions were combined and concentrated for long-term storage at −80 °C.” left out

[1] = target: T1, Enterobacter soli LF7 MarR_Es (Enterobacter soli, UniProt A0AAW8H3I9, A146S); experiment: ITC IAA binding to MarR_Es; conditions: 25 °C, IacR
T1 sequence (A0AAW8H3I9 1-157 A146S): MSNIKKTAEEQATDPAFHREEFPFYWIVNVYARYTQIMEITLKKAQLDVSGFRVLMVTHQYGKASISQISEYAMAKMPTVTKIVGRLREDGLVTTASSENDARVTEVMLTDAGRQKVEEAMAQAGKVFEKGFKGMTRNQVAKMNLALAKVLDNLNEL
Protocol: All ITC measurements were performed at 25 °C using an Auto-ITC200 microcalorimeter (MicroCal/GE Healthcare). The buffer employed was 20 mM HEPES, pH 7.4, 50 mM NaCl and 0.5% dimethly sulfoxide (DMSO) for protein/ligand binding and 20 mM HEPES, pH 7.4 and 300 mM NaCl for DNA/protein binding experiments. For ligand binding experiments, the calorimetry cell (volume 200 ml) was loaded with MarR wild-type, mutant or homologue protein at a concentration of 50 μM. The syringe was loaded with a ligand concentration of 0.5 or 2 mM. […] A typical injection protocol included a single 0.2 μl first injection followed by 20 1.5 μl injections of the syringe sample into the calorimetry cell. The spacing between injections was kept at 180 s and the reference power at 8 μcal s^−1. The data were analysed using Origin for ITC version 7.0 software supplied by the manufacturer and fit well to a one-site binding model. Two independent ITC measurements were performed for each condition.

[2] = target: Acinetobacter baumannii MarR_Ab (Acinetobacter baumannii, UniProt A0ABX6CGA9); experiment: ITC IAA binding to MarR_Ab
Protocol: as §1, with “Fractions were combined and concentrated for long-term storage at −80 °C.” left out

What does the source list for `O=C(O)Cc1c[nH]c2ccccc12` [IAA, indole-3-acetic acid]?
CL14wt_IAA (RNA-seq expression value) (IAA degradation locus; Gene 2643611541): -0.7473; d50_IAA (RNA-seq expression value) (IAA degradation locus; Gene 2643611541): 0.6042; d73_IAA (RNA-seq expression value) (IAA degradation locus; Gene 2643611541): 0.2688; diadDE_IAA (RNA-seq expression value) (IAA degradation locus; Gene 2643611541): 0.4986; CL14wt_IAA (RNA-seq expression value) (IAA degradation locus; Gene 2643611542): -0.07617; d50_IAA (RNA-seq expression value) (IAA degradation locus; Gene 2643611542): 0.09619; d73_IAA (RNA-seq expression value) (IAA degradation locus; Gene 2643611542): 0.02449; diadDE_IAA (RNA-seq expression value) (IAA degradation locus; Gene 2643611542): 0.1314; CL14wt_IAA (RNA-seq expression value) (IAA degradation locus; Gene 2643611543): -0.001618; d50_IAA (RNA-seq expression value) (IAA degradation locus; Gene 2643611543): 0.2002; d73_IAA (RNA-seq expression value) (IAA degradation locus; Gene 2643611543): 0.2405; diadDE_IAA (RNA-seq expression value) (IAA degradation locus; Gene 2643611543): 0.0895; CL14wt_IAA (RNA-seq expression value) (IAA degradation locus; Gene 2643611544): -1.408; d50_IAA (RNA-seq expression value) (IAA degradation locus; Gene 2643611544): -0.115; d73_IAA (RNA-seq expression value) (IAA degradation locus; Gene 2643611544): 0.2327; diadDE_IAA (RNA-seq expression value) (IAA degradation locus; Gene 2643611544): 0.2436; CL14wt_IAA (RNA-seq expression value) (IAA degradation locus; Gene 2643611545): -0.03496; d50_IAA (RNA-seq expression value) (IAA degradation locus; Gene 2643611545): 0.09136; d73_IAA (RNA-seq expression value) (IAA degradation locus; Gene 2643611545): -0.02991; diadDE_IAA (RNA-seq expression value) (IAA degradation locus; Gene 2643611545): 0.001153; Kd (MarR_73 H32A): 3.1 ± 0.1 µM; N (MarR_73 H32A; ITC, 25 °C, mutant H32A): 0.28 ± 0.01; Kd (MarR_73 S28A): 2400 ± 100 nM; N (MarR_73 S28A; ITC, 25 °C, mutant S28A): 0.52 ± 0.01; Kd (MarR_73 R46A): 11 ± 1 µM; N (MarR_73 R46A; ITC, 25 °C, mutant R46A): 1.1 ± 0.1; N (MarR_73 S28A R46A): 1.2 ± 0.2; N1 [1]: 0.967 ± 0.006; Kd [2]: 1290 ± 101 nM; N1 ([2]; ITC, 25 °C, IacR): 0.911 ± 0.011
